# Measurements as given in patent US9371337B2, “β-lactamase inhibitors” (The Regents of the University of California, priority 2011, dated 2016).
# Like-named read-outs stand apart in the source and are kept apart here.
# What was measured:
# CTX-M-9 β-lactamase = CTX-M-9 β-lactamase (Escherichia coli, UniProt Q9L5C8); test: biochemical; type: biochemical
# Description: Reactions were initiated by the addition of 0.3 nM enzyme and monitored at 405 nm.
# (§1) To assess the selectivity of the new molecules we determined Ki values against three common serine proteases, Trypsin, Elastase and α-Chymotrypsin, as well as that of a class A β-lactamase, CTX-M-9 (Table 10) (Pouvreau L, et al. (1998), FEBS Lett 423:167-172; Del Mar E G, et al. (1980), Biochemistry 19:468-472; Rodriguez-Martinez J A, et al. (2009), Biotechnol Lett 31:883-887; Chen Y, et al. (2005), J Mol Biol 348:349-362).
# Elastase = target: T1, Elastase (Sus scrofa, UniProt P00772); test: Elastase inhibition; type: biochemical
# T1 construct: IC50 (Estimated from single concentration measurement); Ki
# T1 sequence (P00772 27-266): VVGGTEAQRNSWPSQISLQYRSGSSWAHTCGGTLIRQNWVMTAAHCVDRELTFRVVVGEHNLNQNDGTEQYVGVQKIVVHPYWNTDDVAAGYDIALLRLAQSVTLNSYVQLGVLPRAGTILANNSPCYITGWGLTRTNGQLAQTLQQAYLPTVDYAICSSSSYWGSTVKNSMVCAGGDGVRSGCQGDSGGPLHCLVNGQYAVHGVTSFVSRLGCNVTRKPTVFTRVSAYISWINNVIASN
# Description: as §1
# Trypsin = target: T2, Trypsin (UniProt P00760); test: Trypsin inhibition; type: biochemical
# T2 construct: IC50 (Estimated from single concentration measurement); Ki
# T2 sequence (P00760 1-246): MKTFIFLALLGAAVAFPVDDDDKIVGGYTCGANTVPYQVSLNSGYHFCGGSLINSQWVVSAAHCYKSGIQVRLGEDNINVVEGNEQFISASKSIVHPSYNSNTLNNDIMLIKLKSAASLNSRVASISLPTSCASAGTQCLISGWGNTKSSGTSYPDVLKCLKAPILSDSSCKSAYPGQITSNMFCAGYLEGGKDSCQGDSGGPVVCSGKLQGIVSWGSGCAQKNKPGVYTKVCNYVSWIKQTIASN
# [1] = target: T3, α-chymotrypsin (bovine pancreatic) (Bos taurus, UniProt P00766); test: α-Chymotrypsin inhibition; type: biochemical
# T3 construct: purchased Sigma-Aldrich
# Description: α-Chymotrypsin assays were performed in 50 mM Tris buffer pH 7.5 with 0.01% Triton-X. Inhibitor and 0.001 mg/mL enzyme were incubated at their final concentration for 10 min before the reaction was initiated by the addition of 200 μM N-succinyl-Ala-Ala-Pro-Phe p-nitroanilide and monitored at 410 nm.
# as §1
# AmpC β-lactamase [2] = target: T4, AmpC β-lactamase (Escherichia coli, UniProt P00811); test: biochemical; type: biochemical
# T4 construct: made in house
# T4 sequence (P00811 20-377): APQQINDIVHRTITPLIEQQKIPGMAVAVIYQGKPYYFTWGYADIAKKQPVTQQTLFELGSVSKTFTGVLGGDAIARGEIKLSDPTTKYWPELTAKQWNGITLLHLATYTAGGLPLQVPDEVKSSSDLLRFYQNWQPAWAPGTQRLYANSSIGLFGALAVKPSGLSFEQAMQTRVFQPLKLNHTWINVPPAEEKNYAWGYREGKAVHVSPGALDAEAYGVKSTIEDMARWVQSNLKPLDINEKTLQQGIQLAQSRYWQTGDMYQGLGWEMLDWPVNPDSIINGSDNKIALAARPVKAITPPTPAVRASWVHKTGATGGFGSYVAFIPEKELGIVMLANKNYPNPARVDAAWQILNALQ
# Description: FIG. 18. Representative IC50 curves. […] IC50 curves were obtained by measuring rates (in duplicates) at different inhibitor concentrations (x-axis) and by determining the residual activity (y-axis, in percentage). IC50 values were determined by non-linear regression and Ki values calculated using GraphPad software assuming competitive inhibition.
# Sulfonamidomethaneboronic acids were dissolved in 100% DMSO at a concentration of 100 mM; more diluted stocks were prepared as necessary. […] The enzyme was expressed and purified as described (Usher, K. C. et al., Biochemistry 1998, 37, 16082-16092) and CENTA was purchased from Tydock Pharma.
# Kinetic measurements were run at room temperature in 50 mM sodium-cacodylate pH 6.5 in the presence of 0.01% Triton-X to prevent non-specific inhibition via compound aggregation. […] (Kettner, C. A. and Shenvi, A. B., J. Biol. Chem. 1984, 259, 15106-15114) Reactions were performed in 1 mL cuvettes with 60 μM CENTA and initiated by adding 1.2 nM enzyme. […] (Weston, G. S. et al., J. Med. Chem. 1998, 41, 4577-4586) The first 180 sec of each reaction were used to measure initial rates. IC50 values were obtained by fitting binding data to a sigmoidal dose-response equation using GraphPad Prism (GraphPad software, Inc). Ki values were determined by the use of Cheng-Prusoff equation. (Cheng, Y. and Prusoff, W. H., Biochem. Pharmacol. 1973, 22, 3099-3108)
# AmpC β-lactamase [3] = target: T4, AmpC β-lactamase; type: biochemical; settings: enzyme incubation and dilution experiments
# [4] = tested on: E. coli producing plasmid-mediated class A β-lactamase CTX-M-14; test: MIC of third-generation cephalosporins alone and with compounds 4 or 9 (Table 3); type: cell-based, Escherichia coli; settings: ratio 1:1
# Description: (§2) Antimicrobial activity was investigated quantitatively to determine the minimum inhibitory concentrations (MICs) of the β-lactam/inhibitor combination necessary to inhibit the bacterial growth (Table 3). The MICs of β-lactams alone against the strains corresponded to a high level of resistance according to Clinical and Laboratory Standards Institute (CLSI) standards. (Clinical and Laboratory Standards Institute, Performance standards for antimicrobial susceptibility testing, 20th Informational Supplement, M100-S20 2010) The compounds had no measurable antibiotic activity when used alone.
# (§3) Susceptibility testing was performed and interpreted following the guidelines of CLSI. (Clinical and Laboratory Standards Institute, Performance standards for antimicrobial susceptibility testing, 20th Informational Supplement, M100-S20 2010) The compounds were dissolved in 50% DMSO, and dilutions were performed using Muller-Hinton medium. An adequate final concentration was obtained to determine the minimum inhibitory concentrations (MICs). The concentration of DMSO was maintained below 5%. The inhibitors were tested for synergy with the third-generation β-lactams ceftazidime and cefotaxime against several clinical bacteria. […] Each value reported reflects the average of three independent experiments. […] A Klebsiella pneumoniae isolate produced the inducible plasmid-mediated class C enzyme DHA-1. The Friedman's test and the Wilcoxon signed rank test were used to compare MIC values. Statistical significance was established at p<0.05.
# [5] = tested on: E. coli overproducing chromosomally-mediated class C β-lactamase; test: as above; type: cell-based, Escherichia coli; settings: ratio 1:1
# Description: as §2, §3
# [6] = tested on: C. freundii overproducing chromosomally-mediated class C β-lactamase; test: as above; type: cell-based, Citrobacter freundii; settings: ratio 1:1
# Description: as §2, §3
# [7] = tested on: E. cloacae overproducing chromosomally-mediated class C β-lactamase; test: as above; type: cell-based, Enterobacter cloacae; settings: ratio 1:1
# Description: as §2, §3
# [8] = tested on: K. pneumoniae and E. cloacae strains in which AmpC expression is inducible; test: β-lactamase induction experiments (disk potentiation of ceftazidime); type: cell-based, Klebsiella pneumoniae; Enterobacter cloacae; settings: 64 μg of compounds or 32 μg cefoxitin per disk, ceftazidime disk 30 μg
# Description: (§4) FIG. 9. Inhibition of bacterial growth and potentiation effect. A) Activity of compounds 4 (CP4) and 9 (CP9) in combination with ceftazidime (CAZ) and alone against a Klebsiella pneumoniae strain producing AmpC β-lactamase. Solvent (SOL):DMSO/Water 1:1. B) Potentiation of β-lactamase inhibition in an E. cloacae strain in which ampC gene expression is inducible by β-lactam antibiotics, such as cefoxitin (FOX). C) Potentiation of β-lactamase inhibition in a Klebsiella pneumoniae isolate producing the inducible class C enzyme DHA-1.
# A traditional β-lactam resistance mechanism is the upregulation of β-lactamase-encoding gene transcription caused by β-lactams such as cefoxitin and the β-lactamase inhibitor clavulanate. To test the role of compounds on the induction of AmpC expression, we investigated their ability to potentiate the action of the β-lactam ceftazidime. We compared the potentiation effect of compounds with that of cefoxitin (FIGS. 9B and 9C). Agar plates were inoculated with K. pneumoniae and E. cloacae strains in which AmpC expression is inducible. A ceftazidime-containing disk and a disk containing the inhibitors (cefoxitin or compounds 4 and 9) were placed on each plate. As ceftazidime diffuses from disks into the agar, a clear zone is created around the ceftazidime-containing disk, indicating where bacteria are unable to grow. The shape of this halo in the vicinity of the inhibitor-containing disk indicated the effect of these compounds on the induction of AmpC. The inhibition halos normally surrounding ceftazidime were substantially diminished in the regions nearest to the cefoxitin disk.
# For the β-lactamase induction experiments, plates of Mueller Hinton agar were inoculated with two clinical strains (E. cloacae and K. pneumoniae) in which production of AmpC-type enzyme is inducible by β-lactam antibiotics. Inhibitors were added to blank disks, and the final content of inhibitor per disk was 64 μg of compounds and 32 μg cefoxitin. Disks of ceftazidime contained 30 μg of antibiotic.
# [9] = tested on: Klebsiella pneumoniae strain producing AmpC β-lactamase; test: Disk diffusion plate assay; type: cell-based; settings: for inhibition of bacterial growth in combination with ceftazidime: disk with ceftazidime (30 μg) and inhibitor (30 μg); for activity on bacteria growth, compound alone: disk with inhibitor alone (30 μg)
# Description: as §4
# For disk diffusion plate assays, bacterial strains were diluted in sterile water to a turbidity equivalent to 0.5 McFarland turbidity standards. After a subsequent 10-fold dilution, the bacterial suspensions were inoculated on Mueller Hinton agar. The plates were dried for 10 min before applying the disks containing cefotaxime or ceftazidime antibiotics (30 μg) or the inhibitor (30 μg) or both. After overnight incubation at 37° C., the zones of bacterial-growth inhibition were measured.
# [10] = tested on: K. pneumoniae producing the plasmid-mediated class C β-lactamase DHA-1; test: MIC of third-generation cephalosporins alone and with compounds 4 or 9 (Table 3); type: cell-based, Klebsiella pneumoniae; settings: ratio 1:1
# Description: as §2, §3
# cruzain = cruzain (Trypanosoma cruzi, UniProt P25779); test: Cruzain inhibition, Z-FR-AMC cleavage; type: biochemical
# Chain of cruzain (P25779 123-337 limits assumed): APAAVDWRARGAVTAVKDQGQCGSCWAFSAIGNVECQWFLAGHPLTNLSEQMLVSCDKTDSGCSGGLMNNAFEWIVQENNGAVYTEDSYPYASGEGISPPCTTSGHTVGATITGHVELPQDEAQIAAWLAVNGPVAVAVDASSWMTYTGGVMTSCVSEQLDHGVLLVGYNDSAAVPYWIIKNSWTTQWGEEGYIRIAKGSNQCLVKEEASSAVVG
# Description: Cruzain assays were performed in 100 mM sodium acetate pH 5.5 with 0.01% Triton-X and 5 mM dithiothreitol. Cruzain activity was measured in a 96-well format fluorimetric assay, monitoring the cleavage of the substrate Z-Phe-Arg-aminomethylcoumarin (Z-FR-AMC), in a SpectraMax M5, Molecular Devices spectrofluorimeter.
# [11] = tested on: P. aeruginosa overproducing chromosomally-mediated class C β-lactamase; test: MIC of third-generation cephalosporins alone and with compounds 4 or 9 (Table 3); type: cell-based, Pseudomonas aeruginosa; settings: ratio 1:1
# Description: as §2, §3
# [12] = Table 4e, read-out: IC50 (Estimated from single concentration measurement)
# [13] = Table 4f, read-out: IC50 (from multi- or single concentration measurements)
# [14] = Table 4g, read-out: Ki (from multi- or single concentration measurements)
# [15] = Table 8, read-out: Ki vs CTX-M-9
# Chain of CTX-M-9 β-lactamase (Q9L5C8 29-291): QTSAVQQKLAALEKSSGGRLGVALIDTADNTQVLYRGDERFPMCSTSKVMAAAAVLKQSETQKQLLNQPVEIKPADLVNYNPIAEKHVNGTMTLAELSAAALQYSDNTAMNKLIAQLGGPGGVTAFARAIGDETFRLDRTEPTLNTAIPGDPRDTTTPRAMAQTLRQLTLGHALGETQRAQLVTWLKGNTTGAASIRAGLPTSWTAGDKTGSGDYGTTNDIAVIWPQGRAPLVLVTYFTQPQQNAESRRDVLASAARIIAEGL
Compound,Ki (CTX-M-9 β-lactamase; [15]) [µM],MIC of cefotaxime with compound [4] [µg/mL],MIC of ceftazidime with compound [4] [µg/mL],MIC of cefotaxime with compound [5] [µg/mL],MIC of ceftazidime with compound [5] [µg/mL],MIC of cefotaxime with compound [6] [µg/mL],MIC of ceftazidime with compound [6] [µg/mL],MIC of cefotaxime with compound [7] [µg/mL],MIC of ceftazidime with compound [7] [µg/mL],"IC50 (CTX-M-9 β-lactamase; Table 4a, read-out: IC50) [µM]",effect on the ceftazidime inhibition halo (induction of AmpC) [8],inhibition of bacterial growth in combination with ceftazidime [9],"activity on bacteria growth, compound alone [9]",MIC of cefotaxime with compound [10] [µg/mL],MIC of ceftazidime with compound [10] [µg/mL],inhibition at 100 µM (cruzain),inhibition at 100 µM [1],MIC of cefotaxime with compound [11] [µg/mL],MIC of ceftazidime with compound [11] [µg/mL],other results
Pinacol(chloromethanesulfonylamino)methaneboronate [CR70],5.9,–,–,–,–,–,–,–,–,–,–,–,–,–,–,–,–,–,–,"potency estimated from few doses (CTX-M-9 β-lactamase; [12]): 16 µM; IC50 (CTX-M-9 β-lactamase; [13]): 16 µM; Ki (CTX-M-9 β-lactamase; [14]): 5.9 µM; Percentage inhibition with 16 μM inhibitor (CTX-M-9 β-lactamase; Table 4d, 16 μM inhibitor): 50; Percentage inhibition with 100 μM inhibitor (Elastase): 90; Percentage activity with 100 μM inhibitor (Elastase; Table 4b, 100 μM inhibitor): 10; potency estimated from few doses (Elastase; [12]): 11 µM; Percentage activity with 100 μM inhibitor (Trypsin; Table 4b, 100 μM inhibitor): 97; Percentage inhibition with 100 μM inhibitor (Trypsin; Table 4c, 100 μM inhibitor): 3; potency estimated from few doses (Trypsin; [12]): 3230 µM; Percentage activity with 100 μM inhibitor ([1]; Table 4b, 100 μM inhibitor): 90; Percentage inhibition with 100 μM inhibitor ([1]; Table 4c, 100 μM inhibitor): 10; potency estimated from few doses [1, 12]: 900 µM; IC50 (AmpC β-lactamase [2]; [13]): 1.55 µM; Ki (AmpC β-lactamase [2]; [14]): 0.3 µM; Ki (AmpC β-lactamase [2]; Table 7, read-out: Ki Vs AmpC): 0.31 µM; Ki (AmpC β-lactamase [2]; Table 8, read-out: Ki vs AmpC): 0.31 µM"
"O=C(O)c1ccc(CS(=O)(=O)NCB(O)O)cc1 [Compound 9, [(4-carboxyphenyl)methanesulfonylamino]methaneboronic acid]",0.55,8,1,2,8,4,4,8,4,1.5,synergic picture,large inhibition halo,little or no detectable activity,2,4,no measurable inhibition,no measurable inhibition,32,8,"time dependence of inhibition (incubation effect, off-rate) (AmpC β-lactamase [3]): no measurable time dependence; IC50 (cruzain; read-out: IC50): > 500 µM; IC50 ([1]; read-out: IC50): > 500 µM"
"CO[C@@]1(NC(=O)Cc2cccs2)C(=O)N2C(C(=O)O)=C(COC(N)=O)CS[C@@H]21 [cefoxitin, reference compound]",–,–,–,–,–,–,–,–,–,–,antagonist picture,–,–,–,–,–,–,–,–,–
"O=S(=O)(Cc1ccccc1)NCB(O)O [Compound 4, Pinacol(phenylmethanesulfonylamino)methaneboronate]",–,16,2,1,4,2,4,4,4,6.87,synergic picture,large inhibition halo,little or no detectable activity,4,8,no measurable inhibition,no measurable inhibition,16,4,Ki (CTX-M-9 β-lactamase): 2.5 µM; Ki (CTX-M-9 β-lactamase; read-out: Ki corresponding to the IC50 values): 2.53 µM; IC50 (cruzain): > 500 µM; IC50 [1]: > 500 µM
